Source: US20050277699A1, “Method of decreasing sebum production and pore size” (Unilever Home & Personal Care USA, Division Of Conopco, Inc., priority 2004, published 2005)

System: human sebocytes
Test: Sebocyte assay: 14C-acetate label remaining in cultured sebocytes (sebum suppression)
Format: cell-based
Method: Secondary cultures of human sebocytes obtained from an adult […] were grown in 96-well tissue culture plates (Packard) until three days post-confluence. Sebocyte growth medium consisted of Clonetics Keratinocyte Basal Medium (KBM) supplemented with 14 ug/ml bovine pituitary extract, 0.4 ug/ml hydrocortisone, 5 ug/ml insulin, 10 ng/ml epidermal growth factor, 1.2×10^−10 M cholera toxin, 100 units/ml penicillin, and 100 ug/ml streptomycin. All cultures were incubated at 37° C. in the presence of 7.5% CO2. Medium was changed three times per week. On the day of experimentation, the growth medium was removed and the sebocytes washed three times with sterile Dulbecco's Modified Eagle Medium (DMEM; phenol red free). Fresh DMEM (200-microliters per well) was added to each sample (5 replicates) with 5-microliters of test agent (DL-α-Difluoromethylornithine hydrochloride) solubilized in water. Controls consisted of addition of water alone. Each plate was returned to the incubator for 20-hours followed by the addition of ^14C-acetate buffer (5 mM final concentration, 56 mCi/mmol specific activity). Sebocytes were returned to the incubator for 4-hours afterwhich each culture was rinsed 3-times with phosphate buffered saline to remove unbound label. Radioactive label remaining in the sebocytes was determined using a Packard TopCount scintillation counter. Statistical significance (p value) was calculated using student's t-test. Phenol Red, a known sebum suppressive agent, was employed as a positive control. […] The experiment was repeated as above with modifications. On the day of experimentation, the growth medium was removed and the sebocytes washed three times with sterile Dulbecco's Modified Eagle Medium (DMEM; phenol red free). Fresh DMEM was added to each sample (3 replicates) with 5-microliters of test agent (DL-a-Difluoromethylornithine hydrochloride) solubilized in water. Controls consisted of addition of water alone. Each plate was returned to the incubator for 68-hours followed by the addition of ^14C-acetate buffer (5 mM final concentration, 56 mCi/mmol specific activity). Sebocytes were returned to the incubator for 4-hours, followed by rinsing each culture 3-times with phosphate buffered saline to remove unbound label. Radioactive label remaining in the sebocytes was determined using a Packard TopCount scintillation counter. Statistical significance (p value) was calculated using student's t-test.

Compound	% of Control (radioactive label remaining in the sebocytes) (10 uM, 20-hours incubation then 4-hours 14C-acetate (24-hours), 5 replicates) [%]	% of Control (radioactive label remaining in the sebocytes) (10 uM, 68-hours incubation then 4-hours 14C-acetate, 3 replicates) [%]	% of Control (radioactive label remaining in the sebocytes) (1000 uM, 20-hours incubation then 4-hours 14C-acetate (24-hours), 5 replicates) [%]	% of Control (radioactive label remaining in the sebocytes) (1000 uM, 68-hours incubation then 4-hours 14C-acetate, 3 replicates) [%]	sebum suppressive activity (in words) (after prolonged incubation (68-hours + 4-hours))	activity at 28.2 µM (Homo sapiens, 28.2 uM, 20-hours incubation then 4-hours 14C-acetate (24-hours), positive control, read-out: % of Control (radioactive label remaining in the sebocytes)) [%]	activity at 282 µM (Homo sapiens, 282 uM, 20-hours incubation then 4-hours 14C-acetate (24-hours), positive control, read-out: % of Control (radioactive label remaining in the sebocytes)) [%]
Cl.NCCCC(N)(C(=O)O)C(F)F (racemic) [DFMO, DL-α-Difluoromethylornithine hydrochloride]	95.5	59.5	88.0	41.4	enhanced sebum suppressive activity	–	–
O=S1(=O)OC(c2ccc(O)cc2)(c2ccc(O)cc2)c2ccccc21 [Phenol Red]	–	–	–	–	–	22.1	34.5
